Data: patent publication US9242970B2 (ACTELION PHARMACEUTICALS LTD., priority 2010, dated 2016)
Where two headings read alike, the source gives them in different places.

Legend:
[1] = molecular target: human orexin-2 receptor (Homo sapiens (Human), UniProt O43614); assay: In vitro assay: intracellular calcium measurements (FLIPR), antagonistic activity; type: cell-based; settings: CHO cells, 3 nM orexin-A, marked values are geometric means of n = 2-6, read-out: IC50 OX2
[2] = molecular target: human orexin-1 receptor (Homo sapiens (Human), UniProt O43613); assay: as above; type: cell-based; settings: CHO cells, 3 nM orexin-A, marked values are geometric means of n = 2-6, read-out: IC50 OX1
Sequence of human orexin-1 receptor (O43613 whole entry): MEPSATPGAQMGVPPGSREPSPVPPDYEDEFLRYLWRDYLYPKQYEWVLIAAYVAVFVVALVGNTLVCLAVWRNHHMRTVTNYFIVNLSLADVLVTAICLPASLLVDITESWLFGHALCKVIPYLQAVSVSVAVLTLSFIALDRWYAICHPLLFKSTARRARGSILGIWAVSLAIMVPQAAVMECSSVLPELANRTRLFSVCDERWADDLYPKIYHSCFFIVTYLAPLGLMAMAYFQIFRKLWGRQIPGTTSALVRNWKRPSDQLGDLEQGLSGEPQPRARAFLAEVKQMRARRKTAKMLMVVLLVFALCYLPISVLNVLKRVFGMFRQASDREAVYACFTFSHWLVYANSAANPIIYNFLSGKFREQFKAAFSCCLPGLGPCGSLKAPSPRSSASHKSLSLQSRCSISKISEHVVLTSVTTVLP

[3] = compound incubation time of 10 min

Sequence of human orexin-2 receptor (O43614 whole entry): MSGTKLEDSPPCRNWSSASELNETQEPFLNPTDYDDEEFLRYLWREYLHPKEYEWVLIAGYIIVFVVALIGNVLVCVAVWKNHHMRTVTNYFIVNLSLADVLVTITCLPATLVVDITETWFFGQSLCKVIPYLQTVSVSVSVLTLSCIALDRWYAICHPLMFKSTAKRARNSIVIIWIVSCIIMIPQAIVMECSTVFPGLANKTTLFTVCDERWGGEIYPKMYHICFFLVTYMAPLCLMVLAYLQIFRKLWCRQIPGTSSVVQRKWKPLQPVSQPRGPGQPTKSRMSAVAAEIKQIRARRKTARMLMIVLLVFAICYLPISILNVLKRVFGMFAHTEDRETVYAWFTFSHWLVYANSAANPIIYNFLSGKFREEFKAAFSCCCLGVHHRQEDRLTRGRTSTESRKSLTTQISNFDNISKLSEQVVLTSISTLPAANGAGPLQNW

| SMILES | IC50 ([1]; compound incubation 120 min) [nM] | IC50 ([2]; compound incubation 120 min) [nM] | IC50 [1, 3] [nM] | IC50 [2, 3] [nM] |
| --- | --- | --- | --- | --- |
| CCOc1cc(F)cc(F)c1[C@@H]1C[C@@H](O)C(=O)N1Cc1ccc(OC(F)(F)F)cc1 (racemic) [Example 431, rac-(3R*,5S*)-5-(2-ethoxy-4,6-difluorophenyl)-3-hydroxy-1-(4-(trifluoromethoxy)benzyl)pyrrolidin-2-one] | 255 | 1490 | – | – |
| O=C1[C@H](O)C[C@@H](c2c(F)cccc2OCCF)N1Cc1ccc(OC(F)(F)F)cc1 (racemic) [Example 432, rac-(3R*,5S*)-5-(2-fluoro-6-(2-fluoroethoxy)phenyl)-3-hydroxy-1-(4-(trifluoromethoxy)benzyl)pyrrolidin-2-one] | 57 | 3960 | – | – |
| CCOc1cccc(F)c1[C@@H]1C[C@@H](O)C(=O)N1Cc1ccccc1OC(F)(F)F (racemic) [Example 433, rac-(3R*,5S*)-5-(2-ethoxy-6-fluorophenyl)-3-hydroxy-1-(2-(trifluoromethoxy)benzyl)pyrrolidin-2-one] | 3920 | 1710 | – | – |
| CCOc1cccc(F)c1[C@@H]1C[C@H](F)C(=O)N1Cc1ccc(OC(F)(F)F)c(F)c1 (racemic) [Example 434, rac-(3S*,5S*)-5-(2-ethoxy-6-fluorophenyl)-3-fluoro-1-(3-fluoro-4-(trifluoromethoxy)benzyl)pyrrolidin-2-one] | 21 | 655 | – | – |
| CCOc1cccc(F)c1[C@@H]1C[C@H](Cl)C(=O)N1Cc1ccc(OC(F)(F)F)c(F)c1 (racemic) [Example 435, rac-(3S*,5S*)-3-chloro-5-(2-ethoxy-6-fluorophenyl)-1-(3-fluoro-4-(trifluoromethoxy)benzyl)pyrrolidin-2-one] | 30 | 660 | – | – |
| CCOc1cccc(Cl)c1[C@@H]1C[C@H](F)C(=O)N1Cc1ccc(OC(F)(F)F)cc1 (racemic) [Example 436, rac-(3S*,5S*)-5-(2-chloro-6-ethoxyphenyl)-3-fuoro-1-(4-(trifluoromethoxy)benzyl)pyrrolidin-2-one] | 31 | 965 | – | – |
| CCOc1cc(F)cc(F)c1[C@@H]1C[C@H](F)C(=O)N1Cc1ccc(OC(F)(F)F)cc1 (racemic) [Example 438, rac-(3S*,5S*)-5-(2-ethoxy-4,6-difluorophenyl)-3-fluoro-1-(4-(trifluoromethoxy)benzyl)pyrrolidin-2-one] | 37 | 921 | – | – |
| CCOc1cc(F)cc(F)c1[C@@H]1C[C@H](Cl)C(=O)N1Cc1ccc(OC(F)(F)F)cc1 (racemic) [Example 439, rac-(3S*,5S*)-3-chloro-5-(2-ethoxy-4,6-difluorophenyl)-1-(4-(trifluoromethoxy)benzyl)pyrrolidin-2-one] | 63 | 575 | – | – |
| COc1cccc(OC)c1C1CCCC(=O)N1Cc1cnc2ccccc2c1 (stereo not drawn) [Example 1, 6-(2,6-dimethoxyphenyl)-1-(quinolin-3-ylmethyl)piperidin-2-one] | – | – | 209 | 643 |
| COc1cccc(OC)c1C1CCCC(=O)N1Cc1ccc2sc(C)nc2c1 (stereo not drawn) [Example 2, 6-(2,6-dimethoxyphenyl)-1-((2-methylbenzo[d]thiazol-5-yl)methyl)piperidin-2-one] | 13 | 26 | – | – |
| COc1cccc(OC)c1C1CCCC(=O)N1Cc1ccc2ncccc2c1 (stereo not drawn) [Example 3, 6-(2,6-dimethoxyphenyl)-1-(quinolin-6-ylmethyl)piperidin-2-one] | 1000 | 154 | – | – |
| COc1cccc(OC)c1C1CCCC(=O)N1Cc1cnc(OC(F)F)c(Cl)c1 (stereo not drawn) [Example 5, 1-((5-chloro-6-(difluoromethoxy)pyridin-3-yl)methyl)-6-(2,6-dimethoxyphenyl)piperidin-2-one] | 38 | 224 | – | – |
| COc1cccc(OC)c1C1CCCC(=O)N1Cc1cccc(-c2ccc(F)cc2)n1 (stereo not drawn) [Example 6, 6-(2,6-dimethoxyphenyl)-1-((6-(4-fluorophenyl)pyridin-2-yl)methyl)piperidin-2-one] | 142 | 119 | – | – |
| COc1cccc(OC)c1C1CCCC(=O)N1Cc1cccc(-c2cccnc2)c1 (stereo not drawn) [Example 7, 6-(2,6-dimethoxyphenyl)-1-(3-(pyridin-3-yl)benzyl)piperidin-2-one] | 55 | 71 | – | – |
| COc1cccc(OC)c1C1CCCC(=O)N1Cc1cncc(-c2ccccc2)c1 (stereo not drawn) [Example 8, 6-(2,6-dimethoxyphenyl)-1-((5-phenylpyridin-3-yl)methyl)piperidin-2-one] | 700 | 1700 | – | – |
| COc1cccc(OC)c1C1CCCC(=O)N1Cc1cccc(-c2ccncc2)c1 (stereo not drawn) [Example 9, 6-(2,6-dimethoxyphenyl)-1-(3-(pyridin-4-yl)benzyl)piperidin-2-one] | 64 | 29 | – | – |
| COc1cccc(OC)c1C1CCCC(=O)N1Cc1cccc(-c2ccccn2)c1 (stereo not drawn) [Example 10, 6-(2,6-dimethoxyphenyl)-1-(3-(pyridin-2-yl)benzyl)piperidin-2-one] | 8 | 9 | – | – |
| COc1cccc(OC)c1C1CCCC(=O)N1Cc1cccc(-c2ccccc2)n1 (stereo not drawn) [Example 11, 6-(2,6-dimethoxyphenyl)-1-((6-phenylpyridin-2-yl)methyl)piperidin-2-one] | 43 | 34 | – | – |
| COc1cccc(OC)c1C1CCCC(=O)N1Cc1ccnc(-c2ccccc2)c1 (stereo not drawn) [Example 12, 6-(2,6-dimethoxyphenyl)-1-((2-phenylpyridin-4-yl)methyl)piperidin-2-one] | 34 | 25 | – | – |
| COc1cccc(OC)c1C1CCCC(=O)N1Cc1cccc(N2CCCCC2)c1 (stereo not drawn) [Example 13, 6-(2,6-dimethoxyphenyl)-1-(3-(piperidin-1-yl)benzyl)piperidin-2-one] | 46 | 22 | – | – |
| COc1cccc(OC)c1C1CCCC(=O)N1Cc1cccc(-c2nccs2)c1 (stereo not drawn) [Example 14, 6-(2,6-dimethoxyphenyl)-1-(3-(thiazol-2-yl)benzyl)piperidin-2-one] | 4 | 4 | – | – |
| COc1cccc(OC)c1C1CCCC(=O)N1Cc1cccc2ccccc12 (stereo not drawn) [Example 15, 6-(2,6-dimethoxyphenyl)-1-(naphthalen-1-ylmethyl)piperidin-2-one] | 23 | 210 | – | – |
| COc1cccc(OC)c1C1CCCC(=O)N1Cc1cccc(-c2csc(C)n2)c1 (stereo not drawn) [Example 16, 6-(2,6-dimethoxyphenyl)-1-(3-(2-methylthiazol-4-yl)benzyl)piperidin-2-one] | 2 | 3 | – | – |
| COc1cccc(OC)c1C1CCCC(=O)N1Cc1cccc(N2CCOCC2)c1 (stereo not drawn) [Example 17, 6-(2,6-dimethoxyphenyl)-1-(3-morpholinobenzyl)piperidin-2-one] | 661 | 210 | – | – |
| COc1cccc(OC)c1C1CCCC(=O)N1Cc1ccc(-c2ccccc2)s1 (stereo not drawn) [Example 18, 6-(2,6-dimethoxyphenyl)-1-((5-phenylthiophen-2-yl)methyl)piperidin-2-one] | 38 | 117 | – | – |
| COc1cccc(OC)c1C1CCCC(=O)N1Cc1cccc(-n2cccn2)c1 (stereo not drawn) [Example 19, 1-(3-(1H-pyrazol-1-yl)benzyl)-6-(2,6-dimethoxyphenyl)piperidin-2-one] | 26 | 25 | – | – |
| COc1cccc(OC)c1C1CCCC(=O)N1Cc1ccc2nccnc2c1 (stereo not drawn) [Example 20, 6-(2,6-dimethoxyphenyl)-1-(quinoxalin-6-ylmethyl)piperidin-2-one] | 864 | 952 | – | – |
